Results taken from ChEMBL document CHEMBL1129744, “Novel imidazothioxanthones: Synthesis, DNA binding and cytotoxicity” (Bioorg Med Chem Lett, 1996).

Key:
[1] = Compound was evaluated for induced thermal stabilization for compound: DNA ratio of 1:10 at 0.1 to 0.2 degrees Centigrade.; set-up: unit: °C
[2] = Compound was evaluated for induced thermal stabilization for compound: DNA ratio of 1:5 at 0.1 to 0.2 degrees Centigrade.; set-up: unit: °C
SW-620 = test: Compound was evaluated for cytotoxicity against SW-620 cell lines.; assay type: functional, cell-based; conditions: Homo sapiens
MCF7 = test: Compound was evaluated for cytotoxicity against MCF-7 cell lines.; assay type: functional, cell-based; conditions: Homo sapiens
HOP-92 = test: Compound was evaluated for cytotoxicity against HOP-92 cell lines.; assay type: functional, cell-based; conditions: Homo sapiens
SK-OV-3 = test: Compound was evaluated for cytotoxicity against SCOV-3 cell lines.; assay type: functional, cell-based; conditions: Homo sapiens
A2780 [3] = test: Compound was evaluated for cytotoxicity against A2780 cis cell lines.; assay type: functional, cell-based; conditions: Homo sapiens
MOLT-4 = test: Compound was evaluated for cytotoxicity against MOLT-4 cell lines.; assay type: functional, cell-based; conditions: Homo sapiens
A2780 [4] = test: Compound was evaluated for cytotoxicity against A2780 cell lines.; assay type: functional, cell-based; conditions: Homo sapiens
MAC15A = test: Compound was evaluated for cytotoxicity against Mac15A cell lines.; assay type: functional, cell-based; conditions: Mus musculus
WEHI = test: Compound was evaluated for cytotoxicity against WEHI cell lines.; assay type: functional, cell-based; conditions: Mus musculus

| Structure (SMILES) | Change in Tm [1] | Change in Tm [2] | IC50 (SW-620) [nM] | IC50 (MCF7) [nM] | IC50 (HOP-92) [nM] | IC50 (SK-OV-3) [nM] | IC50 (A2780 [3]) [nM] | IC50 (MOLT-4) [nM] | IC50 (A2780 [4]) [nM] | IC50 (MAC15A) [nM] | IC50 (WEHI) [nM] |
| --- | --- | --- | --- | --- | --- | --- | --- | --- | --- | --- | --- |
| Nc1ccc2cc3ccc(N)cc3nc2c1 [PROFLAVINE] | 6.3 | 11.5 | – | – | – | – | – | – | – | – | – |
| O=C(c1cn2c(ccc3sc4ccccc4c(=O)c32)n1)N1CCN(CCO)CC1 | 1.9 | 3.5 | – | – | – | 13500 | 1800 | – | 740 | 420 | – |
| O=C(NCCN1CCOCC1)c1cn2c(ccc3sc4ccccc4c(=O)c32)n1 | 1.6 | 2.9 | 4850 | 7080 | 12800 | 23000 | 7600 | 3300 | 5800 | – | – |
| O=C(NCCN1CCCCC1)c1cn2c(ccc3sc4ccccc4c(=O)c32)n1 | 6 | 10.5 | – | – | – | 7700 | 650 | – | 560 | 180 | – |
| O=C1c2c(O)ccc(O)c2C(=O)c2c(NCCNCCO)ccc(NCCNCCO)c21 [MITOXANTRONE] | 15 | > 25 | – | – | – | – | – | – | 5500 | – | – |

Now from value to compound, other results behind:

| Change in Tm [1] | Change in Tm [2] | Structure (SMILES) | IC50 (SW-620) [nM] | IC50 (MCF7) [nM] | IC50 (HOP-92) [nM] | IC50 (SK-OV-3) [nM] | IC50 (A2780 [3]) [nM] | IC50 (MOLT-4) [nM] | IC50 (A2780 [4]) [nM] | IC50 (MAC15A) [nM] | IC50 (WEHI) [nM] |
| --- | --- | --- | --- | --- | --- | --- | --- | --- | --- | --- | --- |
| 3.4 | 6.5 | O=C(NCCN1CCCC1)c1cn2c(ccc3sc4ccccc4c(=O)c32)n1 | 1520 | 610 | 15900 | 29000 | 6000 | 470 | 4500 | – | – |
| 5.7 | 10.4 | CN(C)CCCNC(=O)c1cn2c(ccc3sc4ccccc4c(=O)c32)n1 | 1440 | 11200 | 360 | 2150 | 760 | 420 | 540 | 500 | 300 |
| 0.5 | 1.2 | CCOC(=O)c1cn2c(ccc3sc4ccccc4c(=O)c32)n1 | > 100000 | 84400 | 87500 | > 100000 | > 100000 | > 100000 | > 100000 | – | > 100000 |
| 7 | 12.4 | CCN(CC)CCCNC(=O)c1cn2c(ccc3sc4ccccc4c(=O)c32)n1 | – | – | – | 1650 | 480 | – | 430 | – | – |
